Experimental data: patent publication US8809340B2, “Crystalline form” (Novartis AG, priority 2012, dated 2014)
Structures can show the parent of a compound that is named as a salt.

How the values were obtained:
[1] = Solid-form transformation upon drying; format: physicochemical; conditions: transient solvate form in suspension during the crystallization of Form A
[2] = Relative thermodynamic stability of polymorphic forms; format: physicochemical; conditions: polymorph comparison, succinate salt

Row | form stability / transformation upon drying [1] | Structure (SMILES) | thermodynamic stability relative to Form A [2]
1 | transforms into Form A upon drying | CCCN(CCC)C(=O)COC(=O)CCNS(=O)(=O)c1cccc(C(=O)N2CCC3(CC2)CN/C(=N\C(=O)c2nc(Cl)c(N)nc2N)N3)c1 [Form B, 3-(3-{2-[(E)-3,5-Diamino-6-chloro-pyrazine-2-carbonylimino]-1,3,8-triaza-spiro[4.5]decane-8-carbonyl}-benzenesulfonylamino)-propionic acid dipropylcarbamoylmethyl ester succinate salt] | –
2 | – | CCCN(CCC)C(=O)COC(=O)CCNS(=O)(=O)c1cccc(C(=O)N2CCC3(CC2)CN/C(=N\C(=O)c2nc(Cl)c(N)nc2N)N3)c1 [Form C, 3-(3-{2-[(E)-3,5-Diamino-6-chloro-pyrazine-2-carbonylimino]-1,3,8-triaza-spiro[4.5]decane-8-carbonyl}-benzenesulfonylamino)-propionic acid dipropylcarbamoylmethyl ester succinate salt] | thermodynamically more stable than Form A
